Entries after “also recorded” stand apart in the source; their conditions may differ.
Assays:
[1] = system: Mdr2 knock out (Mdr2 KO) mice; experiment: liver staining in Mdr2 KO mice: collagen deposition (Fast Green/Sirius Red), hydroxyproline, F4/80, Desmin; type: in vivo, mouse; conditions: for portal tract F4/80 immunoreactivity (macrophage marker) / expression of desmin levels (cholangiocyte activation marker): vs untreated Mdr2 KO; for collagen deposition: Fast Green/Sirius Red staining
Method: Mdr2 knock out (Mdr2 KO) mice are a genetic mouse model of PSC and display similar phenotypes to human PSC. Collagen content, ductular reaction and inflammation are elevated in Mdr2 knock out mice. Mdr2 KO mice also have enhanced mast cell (MC) presence. Total bile acid (TBA) content increases in Mdr2 knock out mice. Accumulation of chymase and tryptase positive mast cells (MC) in the liver was evaluated by immunohistochemistry. Metabolic parameters such as Total Bile Acids (serum and liver), Ductular Reaction (CK-19), Hepatic Fibrosis (Fast Green Sirius Red staining), Collagen deposition, Hydroxyproline levels, Fibrotic Gene Markers, cholangiocyte Activation (Desmin), inflammation and mast cell products, (F4/80, which is a macrophage marker) and Senescence and SASP markers (TGF-β1, p21, p16) are measured to determine the effect of compound 1 in mouse model of hepatobiliary disease.
(§1) Animal: 10-12 weeks old Mdr2 homozygous knockout (Mdr2 KO) mice were raised on FVB/NJ background. All mice were maintained in a temperature-controlled environment (20° C. to 22° C.) with 12:12-hour light/dark cycles and fed standard chow with access to drinking water ad libitum.
Fibrosis in liver was evaluated by quantitatively estimating collagen deposition with Fast green and Sirius red staining of formalin fixed paraffin-embedded liver sections ([…]). Hepatic fibrosis and collagen deposition is evaluated by quantitative Fast Green/Sirius Red staining. Macrophage accumulation was determined by staining for F4/80 antibody. (See FIG. 4) Cholangiocyte activation was analyzed by immunofluorescence for Desmin (See FIG. 5) and CK19 (marker for cholangiocytes). (See FIG. 9)

[2] = system: DSS-induced colitis C57Bl/6N mice; experiment: DSS-induced colitis mouse model (body weight loss, occult blood, stool consistency, DAI); type: in vivo; conditions: for DAI score: 20 mg/kg i.p. QD day 3 to 9, 0-4 scale, DSS vehicle 3 and above; for body weight loss (score) / occult blood score / rectal bleeding / stool consistency score / diarrhea: i.p. QD day 3 to 9, Compound 1 20 mg/kg, anti-TNF 15 mg/kg, observed 0-10 days
Method: Animal: For the DSS-induced acute model of experimental colitis, 8-week-old C57Bl/6N mice (weight between 17 and 20 grams, all females from Charles River Laboratories) were used. All mice were maintained in a temperature-controlled environment (20° C.±4° C.) with 12:12-hour light/dark cycles, relative humidity was maintained at 55%±10%, ventilation with 8-10 air changes per hour and fed standard chow with access to drinking water ad libitum.
Mice were treated with one oral cycles of 2.5% DSS (weight/volume) (DSS, molecular mass, 40 kDa; MP Biomedicals), characterized by 7 days of DSS exposure in drinking water, followed by 3 days of regular drinking water.
Administration of drugs: 3 days after starting DSS administration, mice were treated with testing drugs up to day 9, according to the experimental groups and the dose regimen described in table below. 0.5% (w/v) Hydroxypropyl cellulose was used as the vehicle.
From day 0 to 7, the animals received DSS in drinking water and the drugs were administered from day 3 to 9. Body weight and clinical observations such as diarrhea and bleeding from rectum were recorded daily post colitis induction until day 10.
Disease activity Index (DAI) and body weight loss were measured. Colitis severity was calculated using a disease activity index (DAI) score based on daily evaluation of body weight, stool consistency, and presence of blood in the stools, as determined using Hemoccult SENSA Cards (Beckman Coulter).
Grading of intestinal inflammation was determined according to the criteria proposed by Cooper et al (Cooper H S et al., Clinicopathologic study of dextran sulfate sodium experimental murine colitis. Lab Invest. 1993 August; 69(2):238-49, the DAI has been determined by scoring changes in variety of factors such as weight loss, stool consistency, and occult bleeding. The weight loss score ranges from 0 to 4, where zero signals no weight loss, score of 1 indicates the presence of 1-5% weight loss, a score of 2 signals the presence of 5-10% weight loss, a score of 3 signals the presence of 10-20% weight loss and a score of 4 represents greater than 20% weight loss. Likewise, the stool consistency score ranges from 0 to 4 with a score of zero representing normal stools, a score of 2 represents loose stools and a score of 4 represents diarrhea. The rectal bleeding is observed by scores ranging from 0 to 4, where a score of zero represents normal or no significant bleeding, a score of 2 indicates the presence of occult bleeding and a score of 4 indicates the presence of gross bleeding. A 5-point (0-4) DAI was obtained by calculating an average of body weight score, stool consistency and rectal bleeding.

[3] = system: Mdr2 knock out (Mdr2 KO) mice; experiment: liver and serum total bile acid accumulation in Mdr2 KO mice, colorimetric assay; type: in vivo, mouse; conditions: 20 mg/kg i.p.
Method: as §1
Liver and serum bile acid accumulation was evaluated by using a colorimetric assay from Crystal Chem Inc (cat #80471). For Liver, total bile acid (TBA) was extracted from homogenized liver. For serum, (TBAs) were measured in serum by enzyme immunoassay (EIA). 3-alpha-hydroxysteroid dehydrogenase and Nicotinamide adenine dinucleotide (NAD) converted TBA into 3-keto steroids and NADH. The NADH reacts with nitroblue tetrazolium (NBT) to form a dye and this is measured at 540 nm absorbance.

[4] = system: Mdr2 knock out (Mdr2 KO) mice; conditions: 20 mg/kg i.p., vs untreated Mdr2 KO
Method: Mdr2 knock out (Mdr2 KO) mice are a genetic mouse model of PSC and display similar phenotypes to human PSC. Collagen content, ductular reaction and inflammation are elevated in Mdr2 knock out mice. Mdr2 KO mice also have enhanced mast cell (MC) presence. Total bile acid (TBA) content increases in Mdr2 knock out mice. Accumulation of chymase and tryptase positive mast cells (MC) in the liver was evaluated by immunohistochemistry.
as §1

[5] = system: Mdr2 knock out (Mdr2 KO) mice; experiment: quantitative real time PCR of mast cell, pro-fibrotic and biliary senescence markers in liver of Mdr2 KO mice; type: in vivo, mouse; conditions: for Timp2 expression (pro-fibrotic marker): Mdr2 KO = 3.41885191, p<0.0001
Method: as §1
Liver inflammation, fibrosis and biliary senescence was evaluated in liver sections by quantitative real time PCR for mast cell markers such as Mcpt1, Fcer1a, Tpsb2 (See FIG. 3) and pro-fibrotic markers such as Col1a1, Timp2 and Tgfb1, (See FIG. 8)_biliary senescence markers such as Cdkn2a, Cdkn2c, Tgfb1 & Gl1bl. (See FIG. 10). Liver tissue was lysed, and total RNA was isolated using trizol and fold change was calculated using ΔΔCt method.

For `CCC[C@@H](NC(=O)N1C/C(=N/OCC)NC[C@H](Cc2cc(Cl)ccc2OC)C1=O)c1ccc(C(=O)O)c(N)c1` [Compound 1, 2-amino-4-[(1R)-1-({[(3Z,6S)-6-(5-chloro-2-methoxybenzyl)-3-(ethoxyimino)-7-oxo-1,4-diazepan-1-yl]carbonyl}amino)butyl]benzoic acid], the “portal tract F4/80 immunoreactivity (macrophage marker)” value ([1]; 20 mg/kg i.p.) was “reduces”, the “expression of desmin levels (cholangiocyte activation marker)” value [1] was “reduction” and the colon length reduction ([2]; 20 mg/kg i.p. QD day 3 to 9) was “significantly inhibits”. The DAI score ([2]; 20 mg/kg) was “significantly attenuated”, the DAI score ([2]; listed as compound 1, 20 mg/kg) was less than 2 and the “body weight loss (score)” value [2] was “significantly attenuated”. For the same compound, the “occult blood score / rectal bleeding” value [2] was “significantly attenuated” and the “stool consistency score / diarrhea” value [2] was “significantly attenuated”.

`CCC[C@@H](NC(=O)N1C/C(=N/OCC)NC[C@H](Cc2cc(Cl)ccc2OC)C1=O)c1ccc(C(=O)O)c(N)c1` [Compound 1 monoacetic acid solvate, 2-amino-4-[(1R)-1-({[(3Z,6S)-6-(5-chloro-2-methoxybenzyl)-3-(ethoxyimino)-7-oxo-1,4-diazepan-1-yl]carbonyl}amino)butyl]benzoic acid monoacetic acid solvate] was tested, and the “Liver total bile acid content” value ([3]; Mdr2 KO vehicle = 3.498252, p<0.0001) was 1.797 µM, the “serum bile acid content” value ([3]; Mdr2 KO vehicle = 62.04502, p<0.0001) was 26.24 µM and the hydroxyproline accumulation ([1]; 10 mg/kg i.p., Mdr2 KO = 4.871969, p=0.6426) was 4.219. For the same compound, the hydroxyproline accumulation ([1]; 20 mg/kg i.p., Mdr2 KO = 4.871969, p=0.0078) was 2.972, the “portal tract F4/80 immunoreactivity (macrophage marker)” value ([1]; 20 mg/kg i.p.) was “decrease” and the collagen deposition [1] was “restricted”. The collagen deposition ([1]; listed as compound 1 monoacetic acid solvate) was “decrease”, the “expression of desmin levels (cholangiocyte activation marker)” value [1] was “decrease” and the “level of inflammatory marker Tpbs2” value [4] was “significantly reduced”. The “level of inflammatory marker mMCP1” value [4] was “significantly reduced”, the DAI score [2] was “decrease” and the “body weight loss (score)” value [2] was “reduction in the body weight loss; also recorded: decrease”. The “occult blood score / rectal bleeding” value [2] was “reduction in bleeding; also recorded: decrease”, the “stool consistency score / diarrhea” value [2] was “reduction in diarrhea; also recorded: decrease” and the “Tgfb1 expression (pro-fibrotic marker)” value ([5]; 10 mg/kg i.p., Mdr2 KO = 1.72254177, p=0.0138) was 1.133 fold change. For the same compound, the “Fcer1 expression (mast cell marker)” value ([5]; 10 mg/kg i.p., Mdr2 KO = 2.20989385, p=0.0058) was 1.532 fold change, the “Tpsb2 expression (mast cell marker)” value ([5]; 10 mg/kg i.p., Mdr2 KO = 2.21107066, p=0.8750) was 1.53 fold change and the “Mcpt1 expression (mast cell marker)” value ([5]; 10 mg/kg i.p., Mdr2 KO = 2.33385383, p=0.0237) was 0.8094 fold change. For the same compound, the “Col1a1 expression (pro-fibrotic marker)” value ([5]; 10 mg/kg i.p., Mdr2 KO = 3.28243911, p=0.0005) was 1.509 fold change, the “Timp2 expression (pro-fibrotic marker)” value ([5]; 10 mg/kg i.p.) was 1.539 fold change and the “Tgfb1 expression (pro-fibrotic marker)” value ([5]; 20 mg/kg i.p., Mdr2 KO = 1.72254177, p=0.0018) was 0.8986 fold change. For the same compound, the “Fcer1 expression (mast cell marker)” value ([5]; 20 mg/kg i.p., Mdr2 KO = 2.20989385, p<0.0001) was 0.8866 fold change, the “Tpsb2 expression (mast cell marker)” value ([5]; 20 mg/kg i.p., Mdr2 KO = 2.21107066, p=0.7774) was 1.341 fold change and the “Mcpt1 expression (mast cell marker)” value ([5]; 20 mg/kg i.p., Mdr2 KO = 2.33385383, p=0.0178) was 0.723 fold change. For the same compound, the “Col1a1 expression (pro-fibrotic marker)” value ([5]; 20 mg/kg i.p., Mdr2 KO = 3.28243911, p<0.0001) was 0.9248 fold change, the “Timp2 expression (pro-fibrotic marker)” value ([5]; 20 mg/kg i.p.) was 0.9494 fold change and the “Tgfb1 expression (senescence marker)” value ([5]; 20 mg/kg i.p., Mdr2 KO = 4.188847, p=0.0002) was 1.821 fold change. For the same compound, the “Glb1l expression (senescence marker)” value ([5]; 20 mg/kg i.p., Mdr2 KO = 13.02486, p=0.0001) was 3.319 fold change, the “Cdkn2c expression (senescence marker)” value ([5]; 20 mg/kg i.p., Mdr2 KO = 16.05029, p=0.0050) was 12.66 fold change and the “Cdkn2a expression (senescence marker)” value ([5]; 20 mg/kg i.p., Mdr2 KO = 21.49752, p<0.0001) was 3.739 fold change.

From patent US20230398124A1, “SEVEN-MEMBERED RING COMPOUNDS AND METHOD OF USE THEREOF” (Invea Therapeutics, Inc., priority 2022, published 2023)
